The values below come from patent publication US20230023559A1, “ARYLMETHYLENE HETEROCYCLIC COMPOUNDS AS KV1.3 POTASSIUM SHAKER CHANNEL BLOCKERS” (D. E. Shaw Research, LLC, priority 2019, published 2023).

One experiment has as its target hERG channel (Homo sapiens, UniProt Q12809). The experiment in a line: hERG electrophysiology, automated whole-cell patch clamp (Patchliner). A general note: hERG is a cardiac potassium channel; its block is linked to QT prolongation.
Another experiment addresses T1, Kv1.3 potassium channel (Homo sapiens, UniProt P22001).
T1 construct: expressed in transfected cells
Kind of experiment: Kv1.3 potassium channel blocker activity, automated whole-cell patch clamp (Patchliner). It is filed as cell-based. Particulars: CHO-K1 cells stably expressing Kv1.3; whole cell current inhibition; read-out: Kv1.3_IC50. The method, boiled down:
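Peak-current block was recorded on stable Kv1.3 CHO-K1 cells by automated patch clamp, stepping from a −90 mV holding potential to +40 mV for 100 ms at 0.1 Hz with 10 s breaks between trains. Online P/4 leak subtraction, 10 kHz sampling; compound exposure under 10 s per train.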
Background: Patch clamp records ionic current or voltage across a cell membrane.

Bounds are passed on as bounds.

T1 sequence (P22001 whole entry): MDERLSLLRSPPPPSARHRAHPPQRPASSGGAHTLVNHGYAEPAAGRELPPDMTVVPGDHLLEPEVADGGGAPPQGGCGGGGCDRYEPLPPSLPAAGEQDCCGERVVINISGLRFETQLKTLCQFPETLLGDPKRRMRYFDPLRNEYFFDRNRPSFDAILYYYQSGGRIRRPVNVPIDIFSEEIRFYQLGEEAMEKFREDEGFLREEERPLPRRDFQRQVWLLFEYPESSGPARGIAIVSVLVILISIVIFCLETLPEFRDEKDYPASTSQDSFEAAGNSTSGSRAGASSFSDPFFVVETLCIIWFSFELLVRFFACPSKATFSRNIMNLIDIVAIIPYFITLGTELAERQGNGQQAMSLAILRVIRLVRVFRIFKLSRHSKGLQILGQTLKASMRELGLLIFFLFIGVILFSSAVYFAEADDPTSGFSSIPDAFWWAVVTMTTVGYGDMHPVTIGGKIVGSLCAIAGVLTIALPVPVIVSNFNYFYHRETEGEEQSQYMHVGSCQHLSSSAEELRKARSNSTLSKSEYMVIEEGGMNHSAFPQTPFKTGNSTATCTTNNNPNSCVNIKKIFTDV
hERG channel, sequence (Q12809 whole entry): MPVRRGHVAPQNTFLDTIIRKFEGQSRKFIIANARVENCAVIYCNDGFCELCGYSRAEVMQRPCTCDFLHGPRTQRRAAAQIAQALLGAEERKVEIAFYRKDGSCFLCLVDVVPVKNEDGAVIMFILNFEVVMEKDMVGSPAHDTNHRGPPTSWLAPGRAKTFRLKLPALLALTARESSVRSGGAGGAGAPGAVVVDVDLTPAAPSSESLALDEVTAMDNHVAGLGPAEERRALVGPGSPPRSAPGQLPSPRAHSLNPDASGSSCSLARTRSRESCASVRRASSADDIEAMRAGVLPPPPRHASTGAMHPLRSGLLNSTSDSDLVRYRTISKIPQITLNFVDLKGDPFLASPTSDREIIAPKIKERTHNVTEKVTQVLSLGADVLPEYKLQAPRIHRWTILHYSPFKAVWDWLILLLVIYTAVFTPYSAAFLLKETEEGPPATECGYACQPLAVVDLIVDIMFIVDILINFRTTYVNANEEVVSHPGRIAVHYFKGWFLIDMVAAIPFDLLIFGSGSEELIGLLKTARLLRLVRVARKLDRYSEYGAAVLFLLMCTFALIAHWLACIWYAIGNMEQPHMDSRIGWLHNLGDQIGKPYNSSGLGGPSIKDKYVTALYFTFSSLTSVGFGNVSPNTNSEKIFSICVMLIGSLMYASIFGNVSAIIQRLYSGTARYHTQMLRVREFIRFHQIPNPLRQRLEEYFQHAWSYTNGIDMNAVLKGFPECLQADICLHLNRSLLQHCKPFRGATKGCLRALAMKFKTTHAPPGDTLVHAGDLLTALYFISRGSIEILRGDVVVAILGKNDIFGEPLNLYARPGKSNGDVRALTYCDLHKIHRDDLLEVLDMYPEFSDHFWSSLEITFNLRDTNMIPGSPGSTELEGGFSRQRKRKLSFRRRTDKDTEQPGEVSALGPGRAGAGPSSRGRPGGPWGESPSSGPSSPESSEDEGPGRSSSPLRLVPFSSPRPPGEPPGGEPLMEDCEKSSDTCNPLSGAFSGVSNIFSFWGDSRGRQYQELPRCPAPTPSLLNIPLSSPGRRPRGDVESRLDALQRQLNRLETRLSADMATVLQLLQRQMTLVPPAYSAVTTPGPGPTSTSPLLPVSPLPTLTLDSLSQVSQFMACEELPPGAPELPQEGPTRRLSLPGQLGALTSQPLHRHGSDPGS

`O=C([C@@H]1CCNC1)N1CCC(C(O)c2cc(Cl)c(Cl)cc2O)CC1` (stereo partly drawn) [Compound 101, 4,5-dichloro-2-[hydroxy([1-[(3R)-pyrrolidine-3-carbonyl]piperidin-4-yl])methyl]phenol]: the IC50 – broadly, the concentration needed to halve the response being measured – at hERG channel was more than 30 µM; at Kv1.3 potassium channel, less than 0.5 µM.
The corresponding values for `C[C@@H](O)[C@@H](O)C(=O)N1CCC([C@@H](N)c2cc(Cl)c(Cl)cc2O)CC1` (mixture of isomers) [Compound 281, 1-[4-[(R)-amino(4,5-dichloro-2-hydroxyphenyl)methyl]piperidin-1-yl]-(2R,3R)-rel-dihydroxybutan-1-one trifluoro-acetic acid] are more than 30 µM and less than 0.5 µM.
The corresponding values for `O=S(=O)([C@H]1CCNC1)N1CCC([C@H](O)c2cc(Cl)c(Cl)cc2O)CC1` (single isomer, unassigned; isomer 3) [Compound 121, 4,5-dichloro-2-(hydroxy(1-(pyrrolidin-3-ylsulfonyl)piperidin-4-yl)methyl)phenol Isomer 3] are more than 30 µM and less than 0.5 µM.
On to `N[C@@H](c1cc(Cl)c(Cl)cc1O)C1CCN(S(=O)(=O)C2CNC2)CC1` [Compound 107, 2-[(R)-amino[1-(azetidine-3-sulfonyl)piperidin-4-yl]methyl]-4,5-dichlorophenol], for which the values for the IC50 on hERG channel and on Kv1.3 potassium channel were more than 30 µM and less than 0.5 µM, respectively.
The corresponding values for `NC(c1cc(Cl)c(Cl)cc1O)C1CCN(C(=O)C2COC2)CC1` (stereo not drawn) [Compound 67, 2-[amino[1-(oxetane-3-carbonyl)piperidin-4-yl]methyl]-4,5-dichlorophenol] are less than 30 µM and less than 0.5 µM.
The corresponding values for `N[C@@H](c1cc(Cl)c(Cl)cc1O)C1CCN(C(=O)C(O)CO)CC1` (stereo partly drawn) [Compound 117, 1-(4-((R)-amino(4,5-dichloro-2-hydroxyphenyl)methyl)piperidin-1-yl)-2,3-dihydroxypropan-1-one] are more than 30 µM and less than 0.5 µM.
With `N[C@@H](c1cc(Cl)c(CF)cc1O)C1CCN(C(=O)[C@H](O)CO)CC1` [Compound 226, (2R)-1-[4-[(R)-amino[5-chloro-4-(fluoromethyl)-2-hydroxyphenyl]methyl]piperidin-1-yl]-2,3-dihydroxypropan-1-one Trifluoroacetic Acid], the IC50 on hERG channel was more than 30 µM; on Kv1.3 potassium channel, less than 0.5 µM.
The corresponding values for `N[C@@H](c1cc(Cl)c(Cl)cc1O)C1CCN(C(=O)[C@@H]2CNCCO2)CC1` [Compound 99, (4-((R)-amino(4,5-dichloro-2-hydroxyphenyl)methyl)piperidin-1-yl)((S)-morpholin-2-yl)methanone] are more than 30 µM and less than 0.5 µM.
The corresponding values for `N[C@@H](c1cc(Cl)c(Cl)cc1O)[C@@H]1CCNC1` (single isomer, unassigned; diastereoisomer 2) [Compound 33, 2-(amino(pyrrolidin-3-yl)methyl)-4,5-dichlorophenol Trifluoroacetic Acid Diastereoisomer 2] are more than 30 µM and less than 10 µM.
On to `N[C@@H](c1cc(Cl)c(Cl)cc1O)C1CCN(c2cn[nH]c2)CC1` [Compound 149, 2-[(R)-amino[1-(1H-pyrazol-4-yl)piperidin-4-yl]methyl]-4,5-dichlorophenol Trifluoroacetic Acid], for which the IC50 is less than 30 µM against hERG channel and less than 10 µM on Kv1.3 potassium channel.
The corresponding values for `N#CC1(C(=O)N2CCC(C(N)c3cc(Cl)c(Cl)cc3O)CC2)CC1` (stereo not drawn) [Compound 48, 1-(4-(amino(4,5-dichloro-2-hydroxyphenyl)methyl)piperidine-1-carbonyl)cyclopropanecarbonitrile Trifluoroacetic Acid] are less than 30 µM and less than 0.5 µM.
The corresponding values for `N[C@@H](c1cc(Cl)c(Cl)cc1O)C1CCN(C(=O)[C@@H]2CCC(=O)NC2)CC1` (single isomer, unassigned; isomer 2) [Compound 222] are more than 30 µM and less than 0.5 µM.
The corresponding values for `N[C@@H](c1cc(Cl)c(Cl)cc1O)C1CCN(c2ccn[nH]2)CC1` [Compound 154, 2-[(R)-amino[1-(1H-pyrazol-3-yl)piperidin-4-yl]methyl]-4,5-dichlorophenol Trifluoroacetic Acid] are more than 30 µM and less than 10 µM.
For the compound `N[C@@H](c1cc(Cl)c(Cl)cc1O)C1CCN(C(=O)N2CC(O)(CO)C2)CC1` [Compound 220, 1-[4-[(R)-amino(4,5-dichloro-2-hydroxyphenyl)methyl]piperidine-1-carbonyl]-3-(hydroxymethyl)azetidin-3-ol], the figures for the IC50 against hERG channel and on Kv1.3 potassium channel were more than 30 µM and less than 0.5 µM, respectively.
Consider `O=C([C@@H]1CCNC1)N1CCC(C(O)c2c(O)ccc(Cl)c2Cl)CC1` (stereo partly drawn) [Compound 126, 3,4-dichloro-2-[hydroxy([1-[(3R)-pyrrolidine-3-carbonyl]piperidin-4-yl])methyl]phenol Trifluoroacetic Acid], for which the IC50 is more than 30 µM against hERG channel and less than 10 µM on Kv1.3 potassium channel.
As to `Cc1cc(O)c([C@H](N)C2CCN(C(=O)c3ccc4nccn4c3)CC2)cc1Cl` [Compound 238, 2-[(R)-amino(1-[imidazo[1,2-a]pyridine-6-carbonyl]piperidin-4-yl)methyl]-4-chloro-5-methylphenol trifluoroacetic acid], the results for the IC50 on hERG channel and on Kv1.3 potassium channel were less than 30 µM and less than 0.5 µM, respectively.
Take `N[C@@H](c1cc(Cl)c(Cl)cc1O)[C@H]1CCNC1` (single isomer, unassigned; diastereoisomer 1) [Compound 32, 2-(amino(pyrrolidin-3-yl)methyl)-4,5-dichlorophenol Trifluoroacetic Acid Diastereoisomer 1]: the IC50 against hERG channel was more than 30 µM; at Kv1.3 potassium channel it was less than 10 µM.
As to `N[C@@H](c1cc(Cl)c(Cl)cc1O)[C@@H]1CCC(=O)NC1` (single isomer, unassigned; diastereoisomer 2) [Compound 39, 5-(amino(4,5-dichloro-2-hydroxyphenyl)methyl)piperidin-2-one Diastereoisomer 2], the IC50 against hERG channel is more than 30 µM; at Kv1.3 potassium channel, less than 10 µM.
The corresponding values for `C[C@@H]1C[C@@H]([C@@H](N)c2cc(Cl)c(Cl)cc2O)CCN1C(=O)[C@H](O)CO` [Compound 327, (2R)-1-[(2R,4S)-4-[(R)-amino(4,5-dichloro-2-hydroxyphenyl)methyl]-2-methylpiperidin-1-yl]-2,3-dihydroxypropan-1-one Trifluoroacetic Acid] are more than 30 µM and less than 10 µM.
For `CN1CCC(C(N)c2cc(Cl)c(Cl)cc2O)CC1` (stereo not drawn) [Compound 21, 2-(amino(1-methylpiperidin-4-yl)methyl)-4,5-dichlorophenol], the IC50 on hERG channel is less than 30 µM; on Kv1.3 potassium channel, less than 10 µM.
`C[C@H](N)C(=O)N1CCC([C@@H](N)c2cc(Cl)c(Cl)cc2O)CC1` (single isomer, unassigned) [Compound 76]: the 50% inhibitory concentration (IC50) against hERG channel is more than 30 µM; at Kv1.3 potassium channel it was less than 0.5 µM.
The corresponding values for `N[C@@H](c1cc(Cl)c(Cl)cc1O)C1CCN(C(=O)[C@@H]2COCCN2)CC1` [Compound 195, (4-((R)-amino(4,5-dichloro-2-hydroxyphenyl)methyl)piperidin-1-yl)((S)-morpholin-3-yl)methanone] are more than 30 µM and less than 0.5 µM.
The corresponding values for `Cc1cc(O)c([C@H](N)C2CCN(C(=O)c3c[nH]c(=O)c(CO)c3)CC2)cc1Cl` [Compound 207, (R)-5-(4-(amino (5-chloro-2-hydroxy-4-methylphenyl)methyl)piperidine-1-carbonyl)-3-(hydroxymethyl) pyridin-2(1H)-one] are more than 30 µM and less than 0.5 µM.
The corresponding values for `N[C@@H](c1c(O)ccc2ccccc12)C1CCN(C(=O)[C@H](O)CO)CC1` [Compound 191, (2R)-1-[4-[(R)-amino(2-hydroxynaphthalen-1-yl)methyl]piperidin-1-yl]-2,3-dihydroxypropan-1-one Trifluoroacetic Acid] are more than 30 µM and less than 10 µM.
Consider `Cc1n[nH]c(C)c1C(=O)N1CCC([C@@H](N)c2cc(Cl)c(Cl)cc2O)CC1` [Compound 159, 2-[(R)-amino[1-(3,5-dimethyl-1H-pyrazole-4-carbonyl)piperidin-4-yl]methyl]-4,5-dichlorophenol], for which the half-inhibitory concentration (IC50) on hERG channel was more than 30 µM; on Kv1.3 potassium channel it was less than 10 µM.
As to `Nc1ccc(N2CCC([C@@H](N)c3cc(Cl)c(Cl)cc3O)CC2)nc1` [Compound 147, (R)-2-(amino(1-(5-aminopyridin-2-yl)piperidin-4-yl)methyl)-4,5-dichlorophenol Trifluoroacetic Acid], the values for the IC50 against hERG channel and on Kv1.3 potassium channel were less than 30 µM and less than 0.5 µM, respectively.
In the case of `N[C@@H](c1cc(Cl)c(Cl)cc1O)C1CCN(C(=O)C2CCNC(=O)C2)CC1` (stereo partly drawn) [Compound 172, 4-[4-[(R)-amino(4,5-dichloro-2-hydroxyphenyl)methyl]piperidine-1-carbonyl] piperidin-2-one trifluoroacetic acid], the results for the IC50 against hERG channel and at Kv1.3 potassium channel were more than 30 µM and less than 10 µM, respectively.
With `N[C@@H](c1cc(Cl)c(Cl)cc1O)C1CCN(C(=O)c2nnc[nH]2)CC1` [Compound 152, (R)-(4-(amino(4,5-dichloro-2-hydroxyphenyl)methyl)piperidin-1-yl)(1H-1,2,4-triazol-3-yl)methanone trifluoroacetic acid], the IC50 is more than 30 µM against hERG channel and less than 10 µM at Kv1.3 potassium channel.
The corresponding values for `C[C@@H](O)C(=O)N1CCC([C@@H](N)c2cc(Cl)c(Cl)cc2O)CC1` [Compound 105, (R)-1-(4-((R)-amino(4,5-dichloro-2-hydroxyphenyl)methyl)piperidin-1-yl)-2-hydroxypropan-1-one] are more than 30 µM and less than 10 µM.
Take `N[C@@H](c1cc(Cl)c(Cl)cc1O)C1CCN(C(=O)C2(F)CNC2)CC1` [Compound 114, 2-[(R)-amino[1-(3-fluoroazetidine-3-carbonyl)piperidin-4-yl]methyl]-4,5-dichlorophenol]: the IC50 is more than 30 µM at hERG channel and less than 0.5 µM at Kv1.3 potassium channel.
